Test results published in EP1714638A1, “Cosmetic deodorant composition comprising a combination of zinc salicylate or a derivative thereof with an aluminium salt antiperspirant active” (L'ORÉAL, priority 2005, dated 2006).

Test: Deodorant efficacy test: odour intensity of incubated axillary sweat rated by an expert panel
Set-up: species or system humaine
Settings: 24 heures d'incubation à 37°C, versus control sweat without active, scale 0-4
Method: Des recueils de sueur axillaire sont effectués en sauna sur 6 volontaires, les échantillons de sueur individuelle, conservés dans la glace pendant quelques heures, sont alors pratiquement inodores. Ils sont ensuite mélangés et répartis en aliquots de 1 ml. Les actifs sont rajoutés à ces aliquots, puis mis à incuber à l'étuve 37°C. Après 24 heures d'incubation, un jury d'experts évalue l'intensité de l'odeur comparativement à un échantillon témoin : 1 ml de sueur incubée sans ajout d'actif. L'intensité est évaluée sur une échelle de 0 (pas d'odeur) à 4 (très forte odeur).
Les résultats sont exprimés en % de variation de l'intensité de l'odeur comparativement à cet échantillon de sueur témoin (moyenne des % de variation à T24h). Δ = ((intensité odeur de l'échantillon témoin−intensité odeur de l'échantillon avec actif))/(intensité odeur de l'échantillon témoin) × 100 [formula]

Compound	% de diminution de l'intensité de l'odeur (0,1 mg MA/ml de sueur) [%]	further results
Oc1cc(Cl)ccc1Oc1ccc(Cl)cc1Cl [(B), 2,4,4'-trichloro-2'-hydroxydiphényléther]		% de diminution de l'intensité de l'odeur (0,4 mg MA/ml de sueur): -49%
CCCCCC[C@@H](O)C/C=C\CCCCCCCC(=O)[O-].CCCCCC[C@@H](O)C/C=C\CCCCCCCC(=O)[O-].[Zn+2] [(C), Ricinoleate de zinc]		% de diminution de l'intensité de l'odeur (0,3 mg MA/ml de sueur): -4%
Aluminium chlorohydrate [ACH]	-35	
Salicylate de zinc [(A)]	-21	
